Data taken from patent US6756210B2, “Linoleic acid diol and glucuronide conjugate levels as diagnostic markers of disorders of abnormal regulation of cytochrome P450 metabolism of unsaturated fatty acids” (The Regents of the University of California, priority 2001, dated 2004).
Like-named read-outs stand apart in the source and are kept apart here.

What was measured:
[1] = biological target: T1, recombinant mouse sEH (MsEH) (Mus musculus, UniProt P34914); assay: Inhibition of recombinant mouse sEH (MsEH); format: biochemical
T1 sequence (P34914 1-554): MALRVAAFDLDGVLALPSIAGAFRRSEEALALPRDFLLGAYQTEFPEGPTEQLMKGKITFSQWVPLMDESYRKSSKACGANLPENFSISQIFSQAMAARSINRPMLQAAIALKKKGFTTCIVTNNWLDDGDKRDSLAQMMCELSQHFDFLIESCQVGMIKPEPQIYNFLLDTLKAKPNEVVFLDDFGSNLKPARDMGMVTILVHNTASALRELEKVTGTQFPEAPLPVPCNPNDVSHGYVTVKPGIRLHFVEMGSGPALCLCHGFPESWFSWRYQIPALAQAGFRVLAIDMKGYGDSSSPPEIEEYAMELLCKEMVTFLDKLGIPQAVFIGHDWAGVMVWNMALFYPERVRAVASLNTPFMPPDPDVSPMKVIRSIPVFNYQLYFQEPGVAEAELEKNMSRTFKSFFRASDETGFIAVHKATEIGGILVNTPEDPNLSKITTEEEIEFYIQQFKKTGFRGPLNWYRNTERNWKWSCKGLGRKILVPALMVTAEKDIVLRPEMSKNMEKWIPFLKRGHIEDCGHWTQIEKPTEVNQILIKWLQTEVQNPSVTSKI

[2] = biological target: T2, Human sEH (HsEH) (Homo sapiens, UniProt P34913); assay: Inhibition of recombinant human sEH (HsEH); format: biochemical; settings: HsEH 0.26 μM
T2 sequence (P34913 1-555): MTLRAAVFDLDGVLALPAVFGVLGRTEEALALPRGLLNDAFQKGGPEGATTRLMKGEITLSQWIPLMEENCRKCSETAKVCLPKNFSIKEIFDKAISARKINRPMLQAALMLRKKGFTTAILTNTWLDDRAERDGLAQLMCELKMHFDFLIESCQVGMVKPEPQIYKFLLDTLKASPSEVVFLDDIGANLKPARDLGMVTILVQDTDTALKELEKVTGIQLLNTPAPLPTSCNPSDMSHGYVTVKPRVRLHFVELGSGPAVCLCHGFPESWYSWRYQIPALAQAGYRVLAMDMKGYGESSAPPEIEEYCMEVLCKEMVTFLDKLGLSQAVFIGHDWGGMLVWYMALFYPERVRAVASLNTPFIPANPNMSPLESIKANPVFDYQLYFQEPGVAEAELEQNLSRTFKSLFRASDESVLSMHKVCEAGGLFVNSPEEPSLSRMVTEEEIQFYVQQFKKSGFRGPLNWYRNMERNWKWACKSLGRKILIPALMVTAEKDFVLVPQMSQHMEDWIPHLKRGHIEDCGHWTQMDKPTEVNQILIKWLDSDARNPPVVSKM

[3] = Table 1, MsEH 0.13 μM, read-out: Mouse sEH IC50
[4] = Table 2, MsEH 0.13 μM, read-out: Mouse sEH IC50

IC50 [1, 3] [µM]	IC50 ([2]; Table 1) [nM]	IC50 [1, 4] [µM]	IC50 ([2]; Table 2) [nM]	Structure (SMILES)	IC50 [1] [µM]
0.12 ± 0.01	2200 ± 100			CC(C)CNC(=O)NC1CCCCC1 [compound 103]	
0.06 ± 0.01	920 ± 80			CCCCCNC(=O)NC1CCCCC1 [compound 509]	
0.06 ± 0.01	270 ± 20			CC(=O)c1ccc(NC(=O)NC2CCCCC2)cc1 [compound 126]	
0.05 ± 0.01	100 ± 10			O=C(NC12CC3CC(CC(C3)C1)C2)NC12CC3CC(CC(C3)C1)C2 [compound 411]	
0.2 ± 0.02	740 ± 70			CCCCCCCCCCCNC(=O)NCCCC [compound 556]	
0.05 ± 0.01	140 ± 10			CC(C)(C)OC(=O)NCCNC(=O)NC1CCCCC1 [compound 124]	
0.08 ± 0.01	120 ± 10			CC1CCC(C(C)C)C(OC(=O)NC2CCCCC2)C1 (stereo not drawn) [compound 261]	
0.05 ± 0.01	100 ± 10			O=C(NCC1CCCCC1)NC12CC3CC(CC(C3)C1)C2 [compound 437]	
0.05 ± 0.01	100 ± 10			O=C(NC1CCCCC1)NC1C2CC3CC(C2)CC1C3 (stereo not drawn) [compound 427]	
		2400 ± 46		OC[C@@H]1O[C@H]1c1ccccc1 [R=C6H5, R′=H, X—Y=CH—OH, S, S]	
0.06 ± 0.01	100 ± 10			N#Cc1ccc(NC(=O)NC2CCCCC2)cc1 [compound 118]	
0.59 ± 0.08	7600 ± 100			O=C(NCCc1ccccc1)NCc1ccccc1 [compound 470]	
0.27 ± 0.01				CCCCCCCCCCCCNC(=O)OC1CCCCC1 [compound 514]	
0.05 ± 0.01	100 ± 10			O=C(NCC12CC3CC(CC(C3)C1)C2)NC12CC3CC(CC(C3)C1)C2 [compound 412]	
0.9 ± 0.07	8300 ± 400			O=C(NCCNc1ccccc1)NC1CCCCC1 [compound 463]	
0.17 ± 0.02	2200 ± 100			Nc1ccc(NC(=O)NC2CCCCC2)cc1 [compound 385]	
0.05 ± 0.01	1500 ± 100			CN(C)c1ccc(NC(=O)NC2CCCCC2)cc1 [compound 362]	
0.07 ± 0.01	150 ± 10			O=C(Nc1ccncc1)NC1CCCCC1 [compound 100]	

IC50 [1, 3] [µM]	IC50 ([2]; Table 1) [nM]	IC50 [1, 4] [µM]	IC50 ([2]; Table 2) [nM]	Structure (SMILES)	IC50 [1] [µM]
0.05 ± 0.01	190 ± 10			O=C(NCc1ccc(Cl)cc1)NC1CCCCC1 [compound 193]	
0.05 ± 0.01	580 ± 30			O=C(NCCCCc1ccccc1)NC1CCCCC1 [compound 105]	
0.25 ± 0.03	2200 ± 100			O=C(NCCC1=CCCCC1)NCc1ccccc1 [compound 471]	
	240 ± 10			CCCCCCCCNC(=O)NCCCCCC [compound 175]	
0.05 ± 0.01	100 ± 10			O=C(NC1CCCCCCCCCCC1)NC12CC3CC(CC(C3)C1)C2 [compound 413]	
0.21 ± 0.01	610 ± 20			CCCCCCCCCCNC(=O)Nc1ccccc1 [compound 148]	
0.05 ± 0.01	260 ± 20			CCCCCCCCCCCCNC(=O)NCC(C)C [compound 478]	
0.06 ± 0.01	530 ± 30			O=C(NCC1CCCCC1)Nc1ccccc1 [compound 176]	
0.05 ± 0.01	100 ± 10			CCCCCCCNC(=O)NC1CCCCC1 [compound 508]	
0.05 ± 0.01	100 ± 10			O=C(NCCCc1ccccc1)NC12CC3CC(CC(C3)C1)C2 [compound 438]	
0.04 ± 0.01	290 ± 10			O=C(NCCCc1ccccc1)NC1CCCCC1 [compound 104]	
0.05 ± 0.01	2500 ± 80			O=C(NCCCCCCO)NC1CCCCC1 [compound 344]	
0.1 ± 0.02	180 ± 10			O=C(NC1CCCCC1)OCCCCc1ccc([N+](=O)[O-])cc1 [compound 460]	
0.05 ± 0.01	160 ± 10			CCCCCCc1ccc(NC(=O)NC2CCCCC2)cc1 [compound 501]	
0.05 ± 0.01				O=C(NC1CCCCCCC1)NC1CCCCC1 [compound 58]	
0.07 ± 0.01				O=C(Nc1cccc(Cl)c1)NC1CCCCC1 [compound 44]	
		1200 ± 25		O=[N+]([O-])c1ccc([C@H]2O[C@@H]2CO)cc1 [R=4-NO2—C6H4, R′=H, X—Y=CH—OH, R, R]	

More lines, now with the values behind:

Structure (SMILES)	IC50 [1, 3] [µM]	IC50 ([2]; Table 1) [nM]	IC50 [1, 4] [µM]	IC50 ([2]; Table 2) [nM]	IC50 [1] [µM]
CCCCCCCCCCCCNC(=O)NC(C)(C)CC [compound 562]	0.5 ± 0.1	15000 ± 3000			
O=C(Nc1ccc([N+](=O)[O-])cc1)NC1CCCCC1 [compound 38]	0.17 ± 0.01	360 ± 20			
CCCCCCCCNC(=O)OC [compound 72]	0.11 ± 0.01	480 ± 10			
CCCCCCCCNC(=O)Nc1cccc(Cl)c1 [compound 170]	0.12 ± 0.01	180 ± 10			
CCCCCCCCCCCCNC(=O)NCCCC [compound 531]	0.14 ± 0.02	640 ± 30			
O=C(NC1CCCCC1)NC1CCCC1 [compound 23]	0.1 ± 0.01	1690 ± 50			
CCCCCCCCCCCCCNC(=O)NC1CCCCC1 [compound 354]	0.05 ± 0.01	100 ± 10			
O=[N+]([O-])c1ccc([C@@H]2O[C@H]2CO)cc1 [R=4-NO2—C6H4, R′=H, X—Y=CH—OH, S, S]			1.6 ± 0.6		
O=C(Nc1ccc(OC(F)(F)F)cc1)NC1CCCCC1 [compound 343]	0.05 ± 0.01	100 ± 10			
CC1CCCCC1NC(=O)NC1CCCCC1 (stereo not drawn) [compound 551]	0.05 ± 0.01	100 ± 10			
CC(C)(C)C1CCC(NC(=O)NC2CCCCC2)CC1 (stereo not drawn) [compound 428]	0.05 ± 0.1	100 ± 10			
O=C(Nc1c2ccccc2nc2ccccc12)NC1CCCCC1 [compound 559]	0.08 ± 0.01	140 ± 10			
OC(c1ccccc1)C1OC1c1ccc(-c2ccccc2)cc1 (racemic) [R=4-C6H5—C6H4, R′=C6H5, X—Y=CH—OH, ±]			0.51 ± 0.04	720 ± 30	
OC(c1ccccc1)C1OC1c1ccccc1 (racemic) [R=C6H5, R′=C6H5, X—Y=CH—OH, ±]			12.6 ± 0.9	22000 ± 2000	
O=C(Nc1cccc2ccccc12)NC1CCCCC1 [compound 59]	0.85 ± 0.02	480 ± 10			
O=C(NC1CCCCC1)OCc1c2ccccc2cc2ccccc12 [compound 263]	3 ± 0.3	330 ± 60			
O=C(Nc1ccc(Cl)c(Cl)c1)Nc1ccc(Cl)c(Cl)c1 [compound 299]		260			
Cc1ccc(C(=O)C2OC2c2ccc(-c3ccccc3)cc2)cc1 (racemic) [R=4-C6H5—C6H4, R′=4-CH3—C6H4, X—Y=C═O, ±]			0.1 ± 0.01	190 ± 30	
CCOC(CNC(=O)Nc1ccc(C(C)C)cc1)OCC [compound 159]	0.59 ± 0.03	3400 ± 40			

Structure (SMILES)	IC50 [1, 3] [µM]	IC50 ([2]; Table 1) [nM]	IC50 [1, 4] [µM]	IC50 ([2]; Table 2) [nM]	IC50 [1] [µM]
O=C(NCCC1=CCCCC1)NC1CCCCC1 [compound 359]	0.05 ± 0.01	100 ± 10			
Cc1cccc(C)c1NC(=O)NC1CCCCC1 [compound 435]	0.05 ± 0.01	180 ± 10			
CCCCCCNC(=O)NC1CCCCC1 [compound 286]	0.11 ± 0.03	70 ± 20			
CCCCCCCCCCOC(=O)NC [compound 248]		2900 ± 600			0.33 ± 0.05
CCNC(=O)OC1CCCCC1 [compound 255]		2880 ± 40			0.48 ± 0.07
O=C(CCCCc1ccccc1)NC1CCCCC1 [compound 381]	0.06 ± 0.01	680 ± 30			
O=C(NCC1CCCCC1)NC1CCCCC1 [compound 57]	0.06 ± 0.01	160 ± 10			
O=C(NC1CCCCC1)NC1CCCc2ccccc21 (stereo not drawn) [compound 434]	0.05 ± 0.01	100 ± 10			
CC(C)(C)c1ccc(NC(=O)NC2CCCCC2)cc1 [compound 75]	0.06 ± 0.01	230 ± 10			
CCCCCCCCCCCCCC(=O)NC1CCCCC1 [compound 515]	0.19 ± 0.05				
O=C(NC1CCCCC1)NC1CC2CCC1C2 (stereo not drawn) [compound 543]	0.05 ± 0.01	100 ± 10			
COC(c1ccccc1)C1OC1c1ccccc1 (racemic) [R=C6H5, R′=C6H5, X—Y=CH—OCH3, ±]			103 ± 5	34000 ± 1000	
CCCNC(=O)Nc1cccc2ccccc12 [compound 253]	0.1 ± 0.02	280 ± 10			
C(=NC1CCCCC1)=NC1CCCCC1		470 ± 10			0.25 ± 0.02
CCCCCCCCCCNC(=O)NC1CCCCC1 [compound 153]	0.06 ± 0.01	100 ± 10			
CC(C)c1ccc(NC(=O)NC2CCCCC2)cc1 [compound 66]	0.09 ± 0.01				
OC[C@H]1O[C@@H]1c1ccccc1 [R=C6H5, R′=H, X—Y=CH—OH, R, R]			1100 ± 23		
O=[N+]([O-])c1ccc(C2OC2CO)cc1 (racemic) [R=4-NO2—C6H4, R′=H, X—Y=CH—OH, ±]			5 ± 1		
